According to patent US20260083122A1, “METHOD AND AGENT FOR INACTIVATING BACTERIA OR VIRUSES, AND ANTIVIRAL BASE MATERIAL USING SAME” (NISSAN MOTOR CO., LTD., priority 2022, published 2026):

Target: S-RBD-His (Omicron) (SARS-CoV-2 B.1.1.529 (Omicron) Spike RBD Protein) (Severe acute respiratory syndrome coronavirus 2, UniProt P0DTC2, E484A/G339D/G446S/G496S/K417N/N440K/N501Y/Q493R/Q498R/S371L/S373P/S375F/S477N/T478K/Y505H)

Compound: O=[N+]([O-])[O-].O=[N+]1C2CC3CC(C2)CC1C3 [AZADO-Oxo]
- shift of fluorescence peak (binding amount between spike protein and ACE2): a certain inactivation effect was obtained
